Patent publication US10954252B1, “Inhibitors of human immunodeficiency virus replication” (ViiV HEALTHCARE UK (NO.5) LIMITED, priority 2017, dated 2021)

Assays:
[1] = system: recombinant NL4-3 virus (nef section replaced with Renilla luciferase gene) in MT-2 cells; assay: HIV cell culture assay (antiviral activity, luciferase readout); assay type: cell-based; conditions: MT-2 cells infected for 4-5 days with recombinant NL4-3 luciferase virus
Protocol: HIV cell culture assay—MT-2 cells, 293T cells and the proviral DNA clone of NL4-3 virus were obtained from the NIH AIDS Research and Reference Reagent Program. MT-2 cells were propagated in RPMI 1640 media supplemented with 10% heat inactivated fetal bovine serum (FBS), 100 μg/ml penicillin G and up to 100 units/mL streptomycin. The 293T cells were propagated in DMEM media supplemented with 10% heat inactivated FBS, 100 μg/mL penicillin G and 100 μg/mL streptomycin. A recombinant NL4-3 proviral clone, in which a section of the nef gene was replaced with the Renilla luciferase gene, was used to make the reference virus used in these studies. The recombinant virus was prepared through transfection of the recombinant NL4-3 proviral clone into 293T cells using Transit-293 Transfection Reagent from Mirus Bio LLC (Madison, Wis.). Supernatent was harvested after 2-3 days and the amount of virus present was titered in MT-2 cells using luciferase enzyme activity as a marker by measuring luciferase enzyme activity. Luciferase was quantitated using the EnduRen Live Cell Substrate from Promega (Madison, Wis.). Antiviral activities of compounds toward the recombinant virus were quantified by measuring luciferase activity in MT-2 cells infected for 4-5 days with the recombinant virus in the presence of serial dilutions of the compound.
The 50% effective concentration (ECs) was calculated by using the exponential form of the median effect equation where (Fa)=1/[1+(ED50/drug conc.)^m] (Johnson Va., Byington RT. Infectivity Assay. In Techniques in HIV Research. ed. Aldovini A, Walker BD. 71-76. New York: Stockton Press. 1990).

[2] = Compound cytotoxicity, XTT-based colorimetric assay; assay type: cell-based; conditions: human, uninfected MT2 cells
Protocol: Compound cytotoxicity and the corresponding CC50 values were determined using the same protocol as described in the antiviral assay except that uninfected cells were used. Cytotoxicity was assessed on day 4 in uninfected MT2 cells by using a XTT (2,3-bis[2-Methoxy-4-nitro-5-sulfophenyl]-2H-tetrazolium-5-carboxyanilide inner salt)-based colorimetric assay (Sigma-Aldrich, St Louis, Mo.). Biological data for select compounds of the invention are contained in Table 1 and Table 1a

| Structure (SMILES) | EC50 ([1]; Renilla, NL43, Table 1) [nM] | CC50 at 4 days ([2]; Table 1, day 4, XTT) [nM] | EC50 ([1]; Renilla, NL43, Table 1a) [nM] | CC50 at 4 days ([2]; Table 1a, day 4, XTT) [nM] | also measured |
| --- | --- | --- | --- | --- | --- |
| Cn1nc(NS(C)(=O)=O)c2c(Cl)ccc(-c3cc4[nH]ncc4nc3[C@H](Cc3cc(F)cc(F)c3)NC(=O)Cn3nc(C(F)F)c4c3C(F)(F)[C@@H]3C[C@H]43)c21 [Example 3.7, N—((S)-1-(6-(4-chloro-1-methyl-3-(methylsulfonamido)-1H-indazol-7-yl)-1H-pyrazolo[4,3-b]pyridin-5-yl)-2-(3,5-difluorophenyl)ethyl)-2-((3bS,4aR)-3-(difluoromethyl)-5,5-difluoro-3b,4,4a,5-tetrahydro-1H-cyclopropa[3,4]cyclopenta[1,2-c]pyrazol-1-yl)acetamide] | 1.2 | 33900 | – | – | – |
| O=C(Cn1nc(C(F)F)c2c1C(F)(F)[C@@H]1C[C@H]21)N[C@@H](Cc1cc(F)cc(F)c1)c1nc2ncccc2c(=O)n1-c1ccc(OC(F)F)cc1 [Example 30, N-[(1S)-1-{3-[4-(difluoromethoxy)phenyl]-4-oxo-3H,4H-pyrido[2,3-d]pyrimidin-2-yl}-2-(3,5-difluorophenyl)ethyl]-2-[(2S,4R)-9-(difluoromethyl)-5,5-difluoro-7,8-diazatricyclo[4.3.0.0^2,4]nona-1(6),8-dien-7-yl]acetamide] | – | – | 5.03 | 3160 | – |
| N#Cc1ccc(-c2cc3[nH]ncc3nc2[C@H](Cc2cc(F)cc(F)c2)NC(=O)Cn2nc(C(F)F)c3c2C(F)(F)[C@@H]2C[C@H]32)cc1 [Example 10.5, N—((S)-1-(6-(4-cyanophenyl)-1H-pyrazolo[4,3-b]pyridin-5-yl)-2-(3,5-difluorophenyl)ethyl)-2-((3bS,4aR)-3-(difluoromethyl)-5,5-difluoro-3b,4,4a,5-tetrahydro-1H-cyclopropa[3,4]cyclopenta[1,2-c]pyrazol-1-yl)acetamide] | 300 | 9350 | – | – | – |
| COc1ccc2c(=O)n(-c3cccc4c(NS(C)(=O)=O)nn(C)c34)c([C@H](Cc3cc(F)cc(F)c3)NC(=O)Cn3nc(C(F)F)c4c3C(F)(F)[C@@H]3C[C@H]43)nc2c1 (single isomer, unassigned) [Example 80] | – | – | 0.389 | > 1000 | – |
| Cn1nc(NS(C)(=O)=O)c2c(Cl)ccc(-n3c([C@H](Cc4cc(F)cc(F)c4)NC(=O)Cn4nc(C(F)F)c5c4C(F)(F)[C@@H]4C[C@H]54)nc4cc(C(C)(C)C)ccc4c3=O)c21 (mixture of isomers) [Example 215, N—((S)-1-(7-(tert-Butyl)-3-(4-chloro-1-methyl-3-(methylsulfonamido)-1H-indazol-7-yl)-4-oxo-3,4-dihydroquinazolin-2-yl)-2-(3,5-difluorophenyl)ethyl)-2-((3bS,4aR)-3-(difluoromethyl)-5,5-difluoro-3b,4,4a,5-tetrahydro-1H-cyclopropa[3,4]cyclopenta[1,2-c]pyrazol-1-yl)acetamide] | – | – | – | > 1000 | EC50 ([1]; Table 1a): 354 nM |
| Cn1nc(NS(C)(=O)=O)c2c(Cl)ccc(-n3c([C@H](Cc4cc(F)cc(F)c4)NC(=O)Cn4nc(C(F)F)c5c4C(F)(F)[C@@H]4C[C@H]54)nc4c(F)ccc(F)c4c3=O)c21 (single isomer, unassigned) [Example 147] | – | – | – | > 1000 | EC50 ([1]; Table 1a): 27.9 nM |
| Cc1nc2nc(C(Cc3cc(F)cc(F)c3)NC(=O)Cn3nc(C(F)F)c4c3CCC4)c(-c3ccc(Cl)c4c(NS(C)(=O)=O)nn(C)c34)cc2s1 (single isomer, unassigned) [Example 2.3, N-(1-(6-(4-chloro-1-methyl-3-(methylsulfonamido)-1H-indazol-7-yl)-2-methylthiazolo[4,5-b]pyridin-5-yl)-2-(3,5-difluorophenyl)ethyl)-2-(3-(difluoromethyl)-5,6-dihydrocyclopenta[c]pyrazol-1(4H)-yl)acetamide] | – | > 10000 | – | – | EC50 ([1]; Table 1): 0.1 nM |
| Cc1cccc2nc([C@H](Cc3cc(F)cc(F)c3)NC(=O)Cn3ccc(C4CC4)n3)n(-c3ccc(Cl)c4c(NS(C)(=O)=O)nn(C)c34)c(=O)c12 (single isomer, unassigned) [Example 133] | – | – | – | > 1000 | EC50 ([1]; Table 1a): 127 nM |
| Cn1nc(NS(C)(=O)=O)c2c(Cl)ccc(-n3c([C@H](Cc4cc(F)cc(F)c4)NC(=O)Cn4ccc(C5CC5)n4)nc4ncccc4c3=O)c21 [Example 15, (S)—N-(1-(3-(4-chloro-1-methyl-3-(methylsulfonamido)-1H-indazol-7-yl)-4-oxo-3,4-dihydropyrido[2,3-d]pyrimidin-2-yl)-2-(3,5-difluorophenyl)ethyl)-2-(3-cyclopropyl-1H-pyrazol-1-yl)acetamide] | 320 | > 1000 | – | – | – |
| O=C(Cn1nc(C(F)F)c2c1C(F)(F)[C@@H]1C[C@H]21)N[C@@H](Cc1cc(F)cc(F)c1)c1nc2ncccc2c(=O)n1-c1ccc(S(=O)(=O)N2CCOCC2)cc1 [Example 10.38] | 0.204 | > 10000 | – | – | – |
| O=C(Cn1nc(C(F)F)c2c1C(F)(F)[C@@H]1C[C@H]21)NC(Cc1cc(F)cc(F)c1)c1nc2cc[nH]c2cc1-c1ccc2c(c1)C(=O)NC2 (stereo partly drawn) [Example 61, 2-((3bS,4aR)-3-(difluoromethyl)-5,5-difluoro-3b,4,4a,5-tetrahydro-1H-cyclopropa[3,4]cyclopenta[1,2-c]pyrazol-1-yl)-N-(2-(3,5-difluorophenyl)-1-(6-(3-oxoisoindolin-5-yl)-1H-pyrrolo[3,2-b]pyridin-5-yl)ethyl)acetamide] | – | – | 4.51 | > 10000 | – |
| O=C(Cc1c[nH]c2ccc(O)cc12)NC(Cc1cc(F)cc(F)c1)c1nc2cn[nH]c2cc1-c1ccc2scnc2c1 (single isomer, unassigned) [Example 3.3, N-(1-(6-(benzo[d]thiazol-5-yl)-1H-pyrazolo[4,3-b]pyridin-5-yl)-2-(3,5-difluorophenyl)ethyl)-2-(5-hydroxy-1H-indol-3-yl)acetamide] | – | 42400 | – | – | EC50 ([1]; Table 1): 5.7 nM |
| CC(C)c1ccc(-n2c([C@H](Cc3cc(F)cc(F)c3)NC(=O)Cn3nc(C(F)F)c4c3C(F)(F)[C@@H]3C[C@H]43)nc3ncccc3c2=O)cn1 [Example 10.37] | 4.8 | 6900 | – | – | – |
| Cn1nc(NS(C)(=O)=O)c2c(Cl)ccc(-n3c([C@H](Cc4cc(F)cc(F)c4)NC(=O)Cn4nc(C(F)F)c5c4C(F)(F)[C@@H]4C[C@H]54)nc4ccc(F)c(Cl)c4c3=O)c21 (mixture of isomers) [Example 159, N—((S)-1-(5-chloro-3-(4-chloro-1-methyl-3-(methylsulfonamido)-1H-indazol-7-yl)-6-fluoro-4-oxo-3,4-dihydroquinazolin-2-yl)-2-(3,5-difluorophenyl)ethyl)-2-((3bS,4aR)-3-(difluoromethyl)-5,5-difluoro-3b,4,4a,5-tetrahydro-1H-cyclopropa[3,4]cyclopenta[1,2-c]pyrazol-1-yl)acetamide] | – | – | 9.49 | > 1000 | – |
| COc1ccc2c(=O)n(-c3ccc(Cl)c4c(NS(C)(=O)=O)nn(C)c34)c([C@H](Cc3cc(F)cc(F)c3)NC(=O)Cn3nc(C(F)F)c4c3C(F)(F)C3CC43)nc2n1 (stereo in doubt) [Example 13.2, N—((S)-1-(3-(4-chloro-1-methyl-3-(methylsulfonamido)-1H-indazol-7-yl)-7-methoxy-4-oxo-3,4-dihydropyrido[2,3-d]pyrimidin-2-yl)-2-(3,5-difluorophenyl)ethyl)-2-((3bS,4aR)-3-(difluoromethyl)-5,5-difluoro-3b,4,4a,5-tetrahydro-1H-cyclopropa[3,4]cyclopenta[1,2-c]pyrazol-1-yl)acetamide] | 18 | > 10000 | – | – | – |
| NC(=O)c1cc(-n2c([C@H](Cc3cc(F)cc(F)c3)NC(=O)Cn3nc(C(F)F)c4c3C(F)(F)[C@@H]3C[C@H]43)nc3ncccc3c2=O)ccc1Cl [Example 34, 2-Chloro-5-{2-[(1S)-1-{2-[(2S,4R)-9-(difluoromethyl)-5,5-difluoro-7,8-diazatricyclo[4.3.0.0^2,4]nona-1(6),8-dien-7-yl]acetamido}-2-(3,5-difluorophenyl)ethyl]-4-oxo-3H,4H-pyrido[2,3-d]pyrimidin-3-yl}benzamide] | – | – | 6.93 | > 10000 | – |
| O=C(Cn1nc(C(F)F)c2c1C(F)(F)[C@@H]1C[C@H]21)N[C@@H](Cc1cc(F)cc(F)c1)c1nc2cn[nH]c2cc1-c1ccc(S(=O)(=O)N2CCOCC2)cc1 [Example 25, 2-((3bS,4aR)-3-(difluoromethyl)-5,5-difluoro-3b,4,4a,5-tetrahydro-1H-cyclopropa[3,4]cyclopenta[1,2-c]pyrazol-1-yl)-N—((S)-2-(3,5-difluorophenyl)-1-(6-(4-(morpholinosulfonyl)phenyl)-1H-pyrazolo[4,3-b]pyridin-5-yl)ethyl)acetamide] | – | – | 5.78 | 7940 | – |
